Data: patent US20090318470A1, “1-SUBSTITUTED-3-(NAPHTHALEN-1-YLSULFONYL)-5-(PIPERAZIN-1-YL)-1H-INDAZOLE COMPOUNDS AS 5-HYDROXYTRYPTAMINE-6 LIGANDS” (Wyeth, priority 2008, published 2009)
Where a name gives a salt, the structure may show the parent alone. Read-outs that look alike come from different tables or passages of the source.

Legend:
[1] = Pharmacokinetics following a single IV bolus; parameters: species or system Male Long Evans Rats; conditions: male, Long Evans, rat, in vivo; single IV bolus at 2 mg/kg, n = 3
Experimental: (§1) Pharmacokinetics and CNS Penetration of Compounds were Determined Using HPLC Analysis of the Prepared Samples and Presented in Tables 2, 3, & 4 Below
(§2) Male Long Evans Rats were dosed with the candidate drug substance at the dosage amount and route listed above using standard pharmacokinetic procedures (Applied Biopharmaceutics & Pharmacokinetics, Shargel, L and Yu, A, 4th Ed 1999, McGraw-Hill, N.Y.; Welling, P G, Pharmacokinetics, Process and Mathematics, ACS Monograph 185, American Chemical Society 1986, Washington, D.C.; Lee, P and Amidon, G L, Pharmacokinetic Analysis-A Practical Approach, Technomic Pub Co Lancaster Pa. 1996)).

[2] = CNS penetration following a single intraperitoneal dose; format: in vivo, Male Long Evans Rats; conditions: for Kp: male, Long Evans, rat, brain and plasma, read-out: Brain/plasma ratio
[3] = biological target: T1, serotonin 5HT6 receptor subtype (Homo sapiens, UniProt P50406); test: 5HT6 Binding Affinity ([3H]-LSD SPA binding)
T1 construct: host or cells: CHO-Dukx-A2 cells, clone 50-7

[4] = Pharmacokinetics following a single oral dose; parameters: species or system Male Long Evans Rats; conditions: male, Long Evans, rat, in vivo; for bioavailability: po, 10 mg/kg, Table 1, obtained according to Example 10; for AUC(0-inf): single oral dose of 10 mg/kg
Experimental: as §1, §2

[5] = Microsomal stability, human; format: in vitro ADME; conditions: Human microsomes
Experimental: (§3) Compounds listed in Table 5, column A, are prepared as described in U.S. Pat. No. 7,238,696. Each of the compounds in Table 5, columns A and B, were screen according to the microsomal stability procedure described in Di et al., Journal of Biomolecular Screening 2003:453-462.

[6] = Microsomal stability, rat; format: in vitro ADME; conditions: Rat microsomes
Experimental: as §3

[7] = intraperitoneal, 10 mg/mL, Table 1, obtained according to Example 10
[8] = ip, Table 4, single intraperitoneal dose of 10 mg/kg, n = 3
[9] = CHO-Dukx-A2 cells expressing 5HT6, 3 nM [3H]-LSD, Cheng-Prusoff, read-out: 5HT6 Ki

T1 sequence (P50406 whole entry): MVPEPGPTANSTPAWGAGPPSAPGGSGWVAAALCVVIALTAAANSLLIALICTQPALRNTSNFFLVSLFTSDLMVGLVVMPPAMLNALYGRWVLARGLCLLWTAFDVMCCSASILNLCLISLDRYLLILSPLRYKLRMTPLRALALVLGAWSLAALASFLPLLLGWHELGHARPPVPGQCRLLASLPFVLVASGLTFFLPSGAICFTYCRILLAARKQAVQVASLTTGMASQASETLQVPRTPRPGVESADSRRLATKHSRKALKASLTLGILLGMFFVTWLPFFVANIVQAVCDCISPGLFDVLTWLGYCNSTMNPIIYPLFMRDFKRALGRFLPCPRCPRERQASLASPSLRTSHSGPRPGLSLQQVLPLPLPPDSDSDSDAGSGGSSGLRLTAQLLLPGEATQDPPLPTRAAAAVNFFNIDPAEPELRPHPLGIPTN

Row | SMILES | AUC(0-inf) [1] [ng·h/mL] | Kp [2, 7] | Kp [2, 8] | AUClast ([2]; matrix brain, single intraperitoneal dose of 10 mg/kg, n = 3) | Ki [3] [nM] | bioavailability [4] [%] | AUC(0-inf) [4] [ng·h/mL] | Microsomal Stability [5] [min] | Microsomal Stability [6] [min] | Ki [3, 9] [nM]
1 | O=S(=O)(c1cccc2ccccc12)c1n[nH]c2ccc(N3CCNCC3)cc12 [Compound C, 3-(naphthalen-1-ylsulfonyl)-5-(piperazin-1-yl)-1H-indazole dihydrochloride, reference compound] | 390 | < 0.01 | < 0.01 | Not detectable | 0.8 | 3 | 119 | – | – | –
2 | CC(C)Cn1nc(S(=O)(=O)c2cccc3ccccc23)c2cc(N3CCNCC3)ccc21 [Example 1, 1-Isobutyl-3-(naphthalen-1-ylsulfonyl)-5-(piperazin-1-yl)-1H-indazole dihydrochloride] | 378 | 0.81 | 0.81 | – | – | 22 | 413 | >30 | 24 | 4.6
3 | O=S(=O)(c1cccc2ccccc12)c1nn(Cc2ccccc2)c2ccc(N3CCNCC3)cc12 [Example 2, 1-Benzyl-3-(naphthalene-1-sulfonyl)-5-piperazin-1-yl-1H-indazole dihydrochloride] | 843 | 0.26 | 0.26 | – | – | 50 | 2100 | 13 | 25 | 7.5
4 | O=S(=O)(c1cccc2ccccc12)c1nn(Cc2cccc(Cl)c2)c2ccc(N3CCNCC3)cc12 [Example 3, 1-(3-Chlorobenzyl)-5-(piperazin-1-yl)-3-(naphthalen-1-ylsulfonyl)-1H-indazole dihydrochloride] | – | – | – | – | – | – | – | – | – | 23.5
5 | CC(=O)n1nc(S(=O)(=O)c2cccc3ccccc23)c2cc(N3CCNCC3)ccc21 [Example 4, 1-(3-(Naphthalen-1-ylsulfonyl)-5-(piperazin-1-yl)-1H-indazol-1-yl)ethanone hydrochloride] | – | – | – | – | – | – | – | – | – | 1
6 | Cn1nc(S(=O)(=O)c2cccc3ccccc23)c2cc(N3CCNCC3)ccc21 [Example 5, 1-Methyl-3-(naphthalen-1-ylsulfonyl)-5-(piperazin-1-yl)-1H-indazole dihydrochloride] | – | 0.3 | – | – | – | – | – | – | – | 1.6
7 | CCn1nc(S(=O)(=O)c2cccc3ccccc23)c2cc(N3CCNCC3)ccc21 [Example 6, 1-Ethyl-3-(naphthalen-1-ylsulfonyl)-5-(piperazin-1-yl)-1H-indazole dihydrochloride] | – | 0.45 | – | – | – | – | – | – | – | 1.9
8 | CCCn1nc(S(=O)(=O)c2cccc3ccccc23)c2cc(N3CCNCC3)ccc21 [Example 7, 3-(Naphthalen-1-ylsulfonyl)-5-(piperazin-1-yl)-1-propyl-1H-indazole dihydrochloride] | – | – | – | – | – | – | – | – | – | 2.2
9 | CC(C)n1nc(S(=O)(=O)c2cccc3ccccc23)c2cc(N3CCNCC3)ccc21 [Example 8, 1-Isopropyl-3-(naphthalen-1-ylsulfonyl)-5-(piperazin-1-yl)-1H-indazole dihydrochloride] | – | 0.36 | – | – | – | – | – | >30 | >30 | 3
